Experimental data: ChEMBL document CHEMBL4507265 (2021)

Columns and labels:
[1] = target: Cyclin-dependent kinase 19 (Homo sapiens) (UniProt Q9BWU1); conditions: Compound concentration 1000.0 nM
[2] = target: Ephrin type-A receptor 6 (Homo sapiens) (UniProt Q9UF33); conditions: Compound concentration 1000.0 nM
[3] = target: Myosin light chain kinase, smooth muscle (Homo sapiens) (UniProt Q15746); conditions: Compound concentration 1000.0 nM
[4] = tested on: Mast/stem cell growth factor receptor Kit (Homo sapiens), P10721 [D816H]; conditions: Compound concentration 1000.0 nM
[5] = target: Calcium/calmodulin-dependent protein kinase type 1G (Homo sapiens) (UniProt Q96NX5); conditions: Compound concentration 1000.0 nM
[6] = target: MAP kinase-interacting serine/threonine-protein kinase 2 (Homo sapiens) (UniProt Q9HBH9); conditions: Compound concentration 1000.0 nM
[7] = target: ALK tyrosine kinase receptor (Homo sapiens) (UniProt Q9UM73); conditions: Compound concentration 1000.0 nM
[8] = target: Misshapen-like kinase 1 (Homo sapiens) (UniProt Q8N4C8); conditions: Compound concentration 1000.0 nM
[9] = target: D(3) dopamine receptor (Homo sapiens) (UniProt P35462); conditions: Compound concentration 10.0 uM
[10] = target: Casein kinase I isoform epsilon (Homo sapiens) (UniProt P49674); conditions: Compound concentration 1000.0 nM
[11] = target: Histamine H1 receptor (Homo sapiens) (UniProt P35367); conditions: Compound concentration 10.0 uM
[12] = target: Cyclin-dependent kinase 3 (Homo sapiens) (UniProt Q00526); conditions: Compound concentration 1000.0 nM
[13] = target: Histamine H4 receptor (Homo sapiens) (UniProt Q9H3N8); conditions: Compound concentration 10.0 uM
[14] = target: Rhodopsin kinase GRK1 (Homo sapiens) (UniProt Q15835); conditions: Compound concentration 1000.0 nM
[15] = target: Maternal embryonic leucine zipper kinase (Homo sapiens) (UniProt Q14680); conditions: Compound concentration 1000.0 nM
[16] = tested on: Hepatocyte growth factor receptor (Homo sapiens), P08581 [Y1235D]; conditions: Compound concentration 1000.0 nM
[17] = target: Serine/threonine-protein kinase DCLK2 (Homo sapiens) (UniProt Q8N568); conditions: Compound concentration 1000.0 nM
[18] = target: Serine/threonine-protein kinase 38 (Homo sapiens) (UniProt Q15208); conditions: Compound concentration 1000.0 nM
[19] = tested on: Phosphatidylinositol 4,5-bisphosphate 3-kinase catalytic subunit alpha isoform (Homo sapiens), P42336 [E545A]; conditions: Compound concentration 1000.0 nM
[20] = target: Insulin receptor (Homo sapiens) (UniProt P06213); conditions: Compound concentration 1000.0 nM
[21] = target: Serine/threonine-protein kinase LATS2 (Homo sapiens) (UniProt Q9NRM7); conditions: Compound concentration 1000.0 nM
[22] = target: Alpha-2C adrenergic receptor (Homo sapiens) (UniProt P18825); conditions: Compound concentration 10.0 uM
[23] = target: Serine/threonine-protein kinase D1 (Homo sapiens) (UniProt Q15139); conditions: Compound concentration 1000.0 nM
[24] = target: Serine/threonine-protein kinase Sgk2 (Homo sapiens) (UniProt Q9HBY8); conditions: Compound concentration 1000.0 nM
[25] = target: Mitogen-activated protein kinase kinase kinase 5 (Homo sapiens) (UniProt Q99683); conditions: Compound concentration 1000.0 nM
[26] = target: Serine/threonine-protein kinase 24 (Homo sapiens) (UniProt Q9Y6E0); conditions: Compound concentration 1000.0 nM
[27] = target: Dual specificity mitogen-activated protein kinase kinase 5 (Homo sapiens) (UniProt Q13163); conditions: Compound concentration 1000.0 nM
[28] = target: Atypical kinase COQ8B, mitochondrial (Homo sapiens) (UniProt Q96D53); conditions: Compound concentration 1000.0 nM
[29] = target: Mitogen-activated protein kinase 6 (Homo sapiens) (UniProt Q16659); conditions: Compound concentration 1000.0 nM
[30] = target: Mitogen-activated protein kinase kinase kinase 11 (Homo sapiens) (UniProt Q16584); conditions: Compound concentration 1000.0 nM
[31] = target: Dual specificity protein kinase CLK1 (Homo sapiens) (UniProt P49759); conditions: Compound concentration 1000.0 nM
[32] = tested on: Phosphatidylinositol 4,5-bisphosphate 3-kinase catalytic subunit alpha isoform (Homo sapiens), P42336 [E542K]; conditions: Compound concentration 1000.0 nM
[33] = target: T1, Muscarinic acetylcholine receptor M2 (Homo sapiens) (UniProt P08172); conditions: Compound concentration 10.0 uM
T1 sequence (whole entry): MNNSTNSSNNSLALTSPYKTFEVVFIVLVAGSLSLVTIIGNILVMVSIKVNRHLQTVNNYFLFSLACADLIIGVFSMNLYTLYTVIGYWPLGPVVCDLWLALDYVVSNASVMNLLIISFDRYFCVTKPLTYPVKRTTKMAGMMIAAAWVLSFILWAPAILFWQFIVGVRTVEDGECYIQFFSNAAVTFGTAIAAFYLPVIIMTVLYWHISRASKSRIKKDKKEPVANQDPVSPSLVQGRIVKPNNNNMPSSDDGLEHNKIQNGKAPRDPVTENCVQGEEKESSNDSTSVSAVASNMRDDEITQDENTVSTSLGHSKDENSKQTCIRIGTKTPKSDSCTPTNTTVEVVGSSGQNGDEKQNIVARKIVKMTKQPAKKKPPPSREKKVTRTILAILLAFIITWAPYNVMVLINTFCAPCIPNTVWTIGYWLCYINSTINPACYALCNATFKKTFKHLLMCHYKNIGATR

[34] = target: Beta-3 adrenergic receptor (Homo sapiens) (UniProt P13945); conditions: Compound concentration 10.0 uM
[35] = target: 5-hydroxytryptamine receptor 6 (Homo sapiens) (UniProt P50406); conditions: Compound concentration 10.0 uM
[36] = target: Serine/threonine-protein kinase SIK1 (Homo sapiens) (UniProt P57059); conditions: Compound concentration 1000.0 nM
[37] = target: Ribosomal protein S6 kinase alpha-5 (Homo sapiens) (UniProt O75582); conditions: Compound concentration 1000.0 nM
[38] = target: Ribosomal protein S6 kinase alpha-4 (Homo sapiens) (UniProt O75676); conditions: Compound concentration 1000.0 nM
[39] = target: Mitogen-activated protein kinase kinase kinase 2 (Homo sapiens) (UniProt Q9Y2U5); conditions: Compound concentration 1000.0 nM
Chain of Mitogen-activated protein kinase kinase kinase 2 (Homo sapiens) (Q9Y2U5 whole entry): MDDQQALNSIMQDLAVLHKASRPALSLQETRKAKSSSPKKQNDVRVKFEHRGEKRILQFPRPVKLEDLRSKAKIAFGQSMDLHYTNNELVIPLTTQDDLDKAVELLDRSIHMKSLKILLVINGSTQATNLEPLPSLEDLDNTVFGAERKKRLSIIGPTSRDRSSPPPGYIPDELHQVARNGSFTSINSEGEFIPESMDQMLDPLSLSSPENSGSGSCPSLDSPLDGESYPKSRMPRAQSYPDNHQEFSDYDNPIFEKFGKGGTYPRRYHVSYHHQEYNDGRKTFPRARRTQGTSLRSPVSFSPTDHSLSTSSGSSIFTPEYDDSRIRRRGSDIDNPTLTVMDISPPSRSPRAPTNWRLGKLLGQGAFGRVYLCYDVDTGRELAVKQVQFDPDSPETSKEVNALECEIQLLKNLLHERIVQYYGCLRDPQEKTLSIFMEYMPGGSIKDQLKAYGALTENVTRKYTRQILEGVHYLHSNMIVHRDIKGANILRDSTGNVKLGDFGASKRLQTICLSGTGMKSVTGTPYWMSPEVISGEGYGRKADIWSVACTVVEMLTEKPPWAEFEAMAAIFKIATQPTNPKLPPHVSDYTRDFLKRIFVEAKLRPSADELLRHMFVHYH

Chain of Rhodopsin kinase GRK1 (Homo sapiens) (Q15835 whole entry): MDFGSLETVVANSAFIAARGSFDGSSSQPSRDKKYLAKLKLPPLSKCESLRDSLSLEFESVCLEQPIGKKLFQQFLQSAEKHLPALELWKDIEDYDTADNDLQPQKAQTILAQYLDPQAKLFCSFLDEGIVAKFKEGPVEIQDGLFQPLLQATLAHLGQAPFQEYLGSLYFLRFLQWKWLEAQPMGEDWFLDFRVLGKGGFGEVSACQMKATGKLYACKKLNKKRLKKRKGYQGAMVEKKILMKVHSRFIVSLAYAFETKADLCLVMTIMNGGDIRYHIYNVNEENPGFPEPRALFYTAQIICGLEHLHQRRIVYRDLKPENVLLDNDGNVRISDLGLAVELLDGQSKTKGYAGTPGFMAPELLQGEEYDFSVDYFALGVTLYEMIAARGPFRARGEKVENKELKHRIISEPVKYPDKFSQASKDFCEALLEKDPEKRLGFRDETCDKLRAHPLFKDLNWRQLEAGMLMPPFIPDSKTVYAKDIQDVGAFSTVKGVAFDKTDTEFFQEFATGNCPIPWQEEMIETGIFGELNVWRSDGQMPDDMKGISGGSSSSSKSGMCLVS
Chain of Mitogen-activated protein kinase kinase kinase 11 (Homo sapiens) (Q16584 whole entry, looked up): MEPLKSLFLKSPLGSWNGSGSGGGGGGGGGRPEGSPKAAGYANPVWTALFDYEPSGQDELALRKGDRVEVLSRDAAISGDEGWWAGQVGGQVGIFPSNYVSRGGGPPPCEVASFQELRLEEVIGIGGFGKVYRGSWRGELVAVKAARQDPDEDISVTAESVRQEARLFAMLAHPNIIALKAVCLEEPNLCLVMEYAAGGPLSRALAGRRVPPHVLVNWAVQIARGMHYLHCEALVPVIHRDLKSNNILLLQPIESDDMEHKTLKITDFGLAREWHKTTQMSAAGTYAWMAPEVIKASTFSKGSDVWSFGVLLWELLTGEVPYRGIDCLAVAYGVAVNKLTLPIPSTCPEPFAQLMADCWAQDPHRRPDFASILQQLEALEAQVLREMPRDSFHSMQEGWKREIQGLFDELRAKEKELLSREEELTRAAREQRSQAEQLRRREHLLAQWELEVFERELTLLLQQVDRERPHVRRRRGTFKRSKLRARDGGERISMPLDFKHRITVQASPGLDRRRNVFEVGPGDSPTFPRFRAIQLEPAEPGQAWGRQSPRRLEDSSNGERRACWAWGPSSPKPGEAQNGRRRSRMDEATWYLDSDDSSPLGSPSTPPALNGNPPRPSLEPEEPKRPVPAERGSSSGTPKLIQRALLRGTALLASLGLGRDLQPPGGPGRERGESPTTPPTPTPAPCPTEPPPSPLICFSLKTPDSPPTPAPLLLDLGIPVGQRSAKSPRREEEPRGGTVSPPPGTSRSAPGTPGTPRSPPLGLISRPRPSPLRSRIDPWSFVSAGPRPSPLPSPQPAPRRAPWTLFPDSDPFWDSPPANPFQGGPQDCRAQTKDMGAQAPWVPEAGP
Chain of Atypical kinase COQ8B, mitochondrial (Homo sapiens) (Q96D53 whole entry): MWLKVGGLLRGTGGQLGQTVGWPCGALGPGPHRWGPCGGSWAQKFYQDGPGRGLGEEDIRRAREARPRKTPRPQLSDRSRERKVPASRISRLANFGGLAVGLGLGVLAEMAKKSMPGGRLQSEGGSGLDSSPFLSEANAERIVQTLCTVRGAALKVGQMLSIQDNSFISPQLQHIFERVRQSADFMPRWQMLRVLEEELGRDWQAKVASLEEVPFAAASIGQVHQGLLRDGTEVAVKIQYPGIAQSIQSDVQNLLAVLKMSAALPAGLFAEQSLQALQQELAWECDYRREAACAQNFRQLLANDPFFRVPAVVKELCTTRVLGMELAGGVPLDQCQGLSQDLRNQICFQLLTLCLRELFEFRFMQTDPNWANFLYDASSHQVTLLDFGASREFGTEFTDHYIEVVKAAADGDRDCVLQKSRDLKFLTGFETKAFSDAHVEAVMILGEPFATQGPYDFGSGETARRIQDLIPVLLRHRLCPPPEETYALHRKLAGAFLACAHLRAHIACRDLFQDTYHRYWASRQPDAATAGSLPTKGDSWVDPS
Chain of Alpha-2C adrenergic receptor (Homo sapiens) (P18825 whole entry): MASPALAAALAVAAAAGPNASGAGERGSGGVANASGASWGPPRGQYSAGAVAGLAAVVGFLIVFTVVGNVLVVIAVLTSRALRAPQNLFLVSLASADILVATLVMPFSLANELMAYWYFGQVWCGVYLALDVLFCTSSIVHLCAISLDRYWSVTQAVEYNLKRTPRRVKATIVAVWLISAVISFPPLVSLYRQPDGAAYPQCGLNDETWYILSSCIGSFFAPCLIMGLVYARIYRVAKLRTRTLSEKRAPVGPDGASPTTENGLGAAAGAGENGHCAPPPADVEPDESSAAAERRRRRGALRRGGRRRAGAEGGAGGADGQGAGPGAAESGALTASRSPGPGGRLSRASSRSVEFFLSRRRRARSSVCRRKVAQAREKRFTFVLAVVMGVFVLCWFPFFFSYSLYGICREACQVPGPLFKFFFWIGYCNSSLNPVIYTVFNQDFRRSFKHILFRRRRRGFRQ
Chain of Phosphatidylinositol 4,5-bisphosphate 3-kinase catalytic subunit alpha isoform (Homo sapiens), P42336 [E542K] (P42336 whole entry E542K, canonical isoform): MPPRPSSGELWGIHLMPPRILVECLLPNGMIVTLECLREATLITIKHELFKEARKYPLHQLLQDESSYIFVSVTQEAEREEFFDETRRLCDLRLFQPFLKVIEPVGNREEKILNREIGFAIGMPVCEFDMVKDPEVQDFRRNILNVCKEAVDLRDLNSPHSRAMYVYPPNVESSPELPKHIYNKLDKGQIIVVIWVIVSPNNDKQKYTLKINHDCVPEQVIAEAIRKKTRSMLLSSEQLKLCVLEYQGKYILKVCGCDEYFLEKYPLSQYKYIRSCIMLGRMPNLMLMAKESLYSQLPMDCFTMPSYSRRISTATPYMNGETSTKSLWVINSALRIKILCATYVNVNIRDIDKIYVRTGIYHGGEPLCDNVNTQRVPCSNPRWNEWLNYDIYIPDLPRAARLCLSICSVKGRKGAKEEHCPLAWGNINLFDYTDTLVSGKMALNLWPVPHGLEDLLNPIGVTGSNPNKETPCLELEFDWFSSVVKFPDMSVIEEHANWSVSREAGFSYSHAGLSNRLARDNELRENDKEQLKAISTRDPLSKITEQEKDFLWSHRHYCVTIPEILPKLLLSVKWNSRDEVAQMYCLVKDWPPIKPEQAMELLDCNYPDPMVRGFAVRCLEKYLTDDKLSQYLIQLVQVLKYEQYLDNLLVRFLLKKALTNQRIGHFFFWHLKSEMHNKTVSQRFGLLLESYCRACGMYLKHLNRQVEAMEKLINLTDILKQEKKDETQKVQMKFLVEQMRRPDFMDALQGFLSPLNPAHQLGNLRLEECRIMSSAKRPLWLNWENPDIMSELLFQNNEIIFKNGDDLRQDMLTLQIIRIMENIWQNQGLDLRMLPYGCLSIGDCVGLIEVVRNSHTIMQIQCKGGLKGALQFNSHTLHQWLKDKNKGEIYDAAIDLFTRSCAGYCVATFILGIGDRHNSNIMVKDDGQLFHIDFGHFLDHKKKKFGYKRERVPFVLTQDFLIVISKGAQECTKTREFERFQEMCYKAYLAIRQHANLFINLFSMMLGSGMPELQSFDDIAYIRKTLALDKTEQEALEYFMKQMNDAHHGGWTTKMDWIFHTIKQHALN
Chain of Histamine H4 receptor (Homo sapiens) (Q9H3N8 whole entry): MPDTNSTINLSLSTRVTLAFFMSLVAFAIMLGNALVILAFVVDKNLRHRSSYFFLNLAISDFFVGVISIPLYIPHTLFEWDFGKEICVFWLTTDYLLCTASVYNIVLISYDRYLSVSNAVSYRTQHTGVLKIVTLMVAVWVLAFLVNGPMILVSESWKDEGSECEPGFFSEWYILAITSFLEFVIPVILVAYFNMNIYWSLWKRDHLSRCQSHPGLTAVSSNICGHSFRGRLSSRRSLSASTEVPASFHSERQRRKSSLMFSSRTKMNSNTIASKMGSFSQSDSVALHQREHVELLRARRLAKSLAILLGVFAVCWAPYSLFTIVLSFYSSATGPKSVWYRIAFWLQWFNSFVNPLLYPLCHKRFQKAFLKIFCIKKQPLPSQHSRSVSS
Chain of Histamine H1 receptor (Homo sapiens) (P35367 whole entry): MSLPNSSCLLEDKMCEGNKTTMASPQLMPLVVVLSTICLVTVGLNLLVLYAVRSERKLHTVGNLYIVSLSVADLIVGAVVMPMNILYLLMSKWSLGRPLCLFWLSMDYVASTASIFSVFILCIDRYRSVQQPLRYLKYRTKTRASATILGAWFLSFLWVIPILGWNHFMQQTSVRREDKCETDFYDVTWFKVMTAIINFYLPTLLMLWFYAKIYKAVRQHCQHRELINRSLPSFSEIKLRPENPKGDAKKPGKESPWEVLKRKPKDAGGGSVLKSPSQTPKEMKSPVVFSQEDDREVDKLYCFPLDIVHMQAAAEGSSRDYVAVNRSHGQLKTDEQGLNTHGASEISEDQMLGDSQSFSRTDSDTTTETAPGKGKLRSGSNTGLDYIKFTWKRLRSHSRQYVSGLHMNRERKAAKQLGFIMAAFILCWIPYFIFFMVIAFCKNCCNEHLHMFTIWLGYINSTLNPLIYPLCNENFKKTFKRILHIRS

SMILES	residual activity [1]	residual activity [2]	residual activity [3]	residual activity [4]	residual activity [5]	residual activity [6]	residual activity [7]	residual activity [8]	inhibition [9]	residual activity [10]	inhibition [11]	residual activity [12]	inhibition [13]	residual activity [14]	residual activity [15]	residual activity [16]	residual activity [17]	residual activity [18]	residual activity [19]	residual activity [20]	also measured
NS(=O)(=O)c1cc(NC(=O)C2(c3ccccc3Cl)CC2)ccc1Oc1cccc(Cl)c1 [BAY-207]	85%	54%	72%	86%	100%	100%	85%	86%	10.5%	64%	17.9%	90%	0.09%	72%	96%	61%	74%	81%	82%	100%	residual activity [21]: 68%; inhibition [22]: 89.6%; residual activity [23]: 65%; residual activity [24]: 100%; residual activity [25]: 88%; residual activity [26]: 93%; residual activity [27]: 94%; residual activity [28]: 63%; residual activity [29]: 100%; residual activity [30]: 79%; residual activity [31]: 59%; residual activity [32]: 80%; inhibition [33]: 2.03%; inhibition [34]: -5.77%; inhibition [35]: -4.73%; residual activity [36]: 71%; residual activity [37]: 100%; residual activity [38]: 70%; residual activity [39]: 100%
NS(=O)(=O)c1cc(NC(=O)Cc2ccccc2)ccc1Oc1cccc(Cl)c1 [BAY-1797]	91%	83%	73%	76%	84%	86%	100%	90%	0.87%	100%	15.7%	92%	-3.13%	83%	59%	100%	99%	90%	69%	100%	residual activity [21]: 94%; inhibition [22]: 18.2%; residual activity [23]: 96%; residual activity [24]: 85%; residual activity [25]: 100%; residual activity [26]: 82%; residual activity [27]: 88%; residual activity [28]: 100%; residual activity [29]: 98%; residual activity [30]: 78%; residual activity [31]: 67%; residual activity [32]: 87%; inhibition [33]: -8.33%; inhibition [34]: 46.3%; inhibition [35]: 17.2%; residual activity [36]: 93%; residual activity [37]: 71%; residual activity [38]: 100%; residual activity [39]: 84%
